According to patent publication US20210236512A1 (ZARODEX THERAPEUTICS LIMITED, priority 2018, published 2021):
“And” between values parts separate entries of the source, which are not always exact repeats. Equal values may be shown once. “Also recorded” adds a separate entry of the source.

Assays:
[1] = tested on: Immunoglobulin levels (IgG, IgA and IgM); experiment: First observational study: serum immunoglobulin levels by nephelometry, clozapine-treated vs clozapine-naive patients; type: in vivo, human
[2] = tested on: Specific antibody titres against Haemophilus influenzae, Tetanus and Pneumococcal capsular polysaccharide; design: species or system human; conditions: in vivo
[3] = sub-group A: all diagnoses, all smoking, secondary causes not excluded, n=123
[4] = sub-group A: all diagnoses, all smoking, secondary causes not excluded, n=123, listed as clozapine
[5] = sub-group B: possible secondary causes excluded, n=94
[6] = sub-group C: schizophrenia diagnoses only, secondary causes excluded, n=87
[7] = sub-group D: smokers only, secondary causes excluded, n=57

## CN1CCN(C2=Nc3cc(Cl)ccc3Nc3ccccc32)CC1 [Clozapine, clozapine]
[1]; FIG. 1A-D
  Concentrations / distribution of serum IgG, IgA and IgM vs clozapine-naive control group: significantly reduced; also recorded: leftward shift (reduction)
[1]; p 0.014, not observed in clozapine-naive patients
  Effect of duration of clozapine therapy on serum IgG levels: associated with lower serum IgG levels; also recorded: progressively reduced IgG levels
[1]; [3]
  Serum IgA <0.5 g/L, percentage of patients: 1.6%
  Serum IgA <0.6 g/L, percentage of patients: 2.4%
  Serum IgA <0.7 g/L, percentage of patients: 6.5%
  Serum IgA <0.8 g/L (below reference range 0.8-4.0 g/L), percentage of patients: 13.1% and 13.0%
  Serum IgG <3 g/L, percentage of patients: 0.8%
  Serum IgG <4 g/L, percentage of patients: 1.6%
  Serum IgG <5 g/L, percentage of patients: 3.3%
  Serum IgG <6 g/L (below reference range 6-16 g/L), percentage of patients: 9.8%
  Serum IgM <0.2 g/L, percentage of patients: 8.1%
  Serum IgM <0.3 g/L, percentage of patients: 16.3%
  Serum IgM <0.4 g/L, percentage of patients: 29.3%
  Serum IgM <0.5 g/L (below reference range 0.5-1.9 g/L), percentage of patients: 38.2%
[1]; [4]
  Serum IgA <0.8 g/L (below reference range 0.8-4.0 g/L), percentage of patients: 13.0%
  Serum IgG <6 g/L (below reference range 6-16 g/L), percentage of patients: 9.8%
  Serum IgM <0.5 g/L (below reference range 0.5-1.9 g/L), percentage of patients: 38.2%
[1]; [5]
  Serum IgA <0.5 g/L, percentage of patients: 2.1%
  Serum IgA <0.6 g/L, percentage of patients: 2.1%
  Serum IgA <0.7 g/L, percentage of patients: 6.4%
  Serum IgA <0.8 g/L (below reference range 0.8-4.0 g/L), percentage of patients: 13.8%
  Serum IgG <3 g/L, percentage of patients: 1.1%
  Serum IgG <4 g/L, percentage of patients: 1.1%
  Serum IgG <5 g/L, percentage of patients: 2.1%
  Serum IgG <6 g/L (below reference range 6-16 g/L), percentage of patients: 8.4%
  Serum IgM <0.2 g/L, percentage of patients: 5.3%
  Serum IgM <0.3 g/L, percentage of patients: 12.8%
  Serum IgM <0.4 g/L, percentage of patients: 26.6%
  Serum IgM <0.5 g/L (below reference range 0.5-1.9 g/L), percentage of patients: 34.0%
[1]; [6]
  Serum IgA <0.5 g/L, percentage of patients: 2.3%
  Serum IgA <0.6 g/L, percentage of patients: 3.5%
  Serum IgA <0.7 g/L, percentage of patients: 6.9%
  Serum IgA <0.8 g/L (below reference range 0.8-4.0 g/L), percentage of patients: 14.9%
  Serum IgG <3 g/L, percentage of patients: 1.2%
  Serum IgG <4 g/L, percentage of patients: 1.2%
  Serum IgG <5 g/L, percentage of patients: 2.3%
  Serum IgG <6 g/L (below reference range 6-16 g/L), percentage of patients: 9.2%
  Serum IgM <0.2 g/L, percentage of patients: 5.8%
  Serum IgM <0.3 g/L, percentage of patients: 12.6%
  Serum IgM <0.4 g/L, percentage of patients: 27.6%
  Serum IgM <0.5 g/L (below reference range 0.5-1.9 g/L), percentage of patients: 35.6%
[1]; [7]
  Serum IgA <0.5 g/L, percentage of patients: 3.5%
  Serum IgA <0.6 g/L, percentage of patients: 3.5%
  Serum IgA <0.7 g/L, percentage of patients: 3.5%
  Serum IgA <0.8 g/L (below reference range 0.8-4.0 g/L), percentage of patients: 10.5%
  Serum IgG <3 g/L, percentage of patients: 1.8%
  Serum IgG <4 g/L, percentage of patients: 1.8%
  Serum IgG <5 g/L, percentage of patients: 1.8%
  Serum IgG <6 g/L (below reference range 6-16 g/L), percentage of patients: 8.8%
  Serum IgM <0.2 g/L, percentage of patients: 1.78%
  Serum IgM <0.3 g/L, percentage of patients: 12.3%
  Serum IgM <0.4 g/L, percentage of patients: 26.3%
  Serum IgM <0.5 g/L (below reference range 0.5-1.9 g/L), percentage of patients: 33.3%
[2]
  IgG-Haemophilus B <1.0 mcg/ml, percentage of patients: 51% and 51.2% and 51.1% and 49.4% and 50.9%
